# From patent publication EP0217621A2, “Macromolecular tumor cell growth-inhibiting antibiotic” (SMITHKLINE BECKMAN CORPORATION, priority 1985, dated 1987)
# Assays:
# P388 leukemia = assay: in vivo ip P388 leukemia mouse model; parameters: species or system B6D2F1 mice; conditions: positive control, 1 mg/kg/day
# Excerpt: P388 lymphocytic leukemia is currently the most widely used animal tumor model for screening for antitumor agents and for detailed evaluation of active compounds. This tumor system is widely accepted as an antitumor agent screening tool because it is sensitive to virtually all of the clinically active antineoplastic agents; quantitative and reproducible: amenable for large-scale screening; and predictive for activity in other animal tumor models. […] Rpts. (Part III), 3, 1-103 (1972)]: • 10^6 P388 leukemia cells are inoculated ip in B6D2F1 mice. Twenty-four hours later, if the tumor inoculum proves to be free of bacterial contamination (as determined by 24 hours incubation in thioglycollate broth), animals are randomized into groups of 6 and housed in shoebox cages. The purified active component of ATCC 53270 was dissolved in 0.9 percent NaCl solution (normal saline) at an appropriate concentration so that the desired dose was delivered in a volume of 0.5 ml. The crude broth of ATCC 53270 was administered undiluted or diluted with normal saline. Such saline solutions were stored in amber bottles at 4°C. The saline solution of the purified active component of ATCC 53270, saline solution of the crude broth of ATCC 53270 or undiluted crude broth of ATCC 53270 are administered ip on Days 1 through 5 (i.e. treatment is initiated 24 hrs after tumor inoculation). […] Animals are weighed as a group on Days 1, 5 and 9 and average weight change (δ wt.) is used as a reflection of toxicity. Each experiment also includes an inoculum titration -- groups of 8 mice inoculated ip with 10^5 to 10^0 P388 leukemia cells. The titration is used to calculate cell kill achieved by treatment with drugs. Animals are monitored daily for mortality and experiments are terminated after 45 days. The endpoint is median survival time (MST) and increase in lifespan (ILS) which is the percentage of increase in MST relative to untreated controls. Untreated controls inoculated ip with 10^6 P388 leukemia cells generally survive for a median of 9 to 11 days. A drug is considered active if it produces > 25 percent ILS.
# ADJ-PC6 Plasmacytoma = assay: in vivo ADJ-PC6 Plasmacytoma tumor model; parameters: species or system BALB/c female mice
# Protocol: Likewise, AAC-345, in the form of the crude broth of ATCC 53270 and the purified active component of ATCC 53270, was tested in an additional in vivo tumor model known as ADJ-PC6 Plasmacytoma according to the following assay [see Cleare et al., J. Biochimie, 60, 830-850 (1978)]: • Tumor cells are carried by serial sc passage in BALB/c female mice and then collected aseptically on ca. Day 21 and minced in Hank's balanced salt solution. The cells are then dispersed by homogenizer, and cell concentration is adjusted to 4×10^6 viable (trypan blue-excluding) cells per ml by hemocytometer counts. A total of 0.5 ml (2x10^6 cells) is implanted sc on the right flank of BALB/c female mice in groups of 8. Treatment is given ip on Days 1-10, and tumors are measured in perpendicular diameters with a vernier caliper approximately three (3) weeks after tumor implantation (Days 18-21). Generally, > 75% inhibition of tumor growth reflects significant antitumor effect.
compound,measurement,setting,value
N.N.[Cl][Pt][Cl] [Cisplatin],ILS (increase in lifespan),P388 leukemia; Experiment I,117%
same,Median Survival Time,P388 leukemia; Experiment I,19.5 days
same,Weight Change Day 5,P388 leukemia; Experiment I,-0.2 gm
same,Weight Change Day 9,P388 leukemia; Experiment I,+1.4 gm
same,ILS (increase in lifespan),P388 leukemia; Experiment II,89%
same,Median Survival Time,P388 leukemia; Experiment II,17 days
same,Weight Change Day 5,P388 leukemia; Experiment II,-0.6 gm
same,Weight Change Day 9,P388 leukemia; Experiment II,+1.2 gm
same,TGI (percent of tumor growth inhibition),"ADJ-PC6 Plasmacytoma; Experiment I, 3 mg/kg/day ip Days 1-10, Day 21",100%
same,Mean Tumor Volume,"ADJ-PC6 Plasmacytoma; Experiment I, 3 mg/kg/day ip Days 1-10, measured Day 21",0 ± 0 mm^3
same,tumor growth inhibition,"ADJ-PC6 Plasmacytoma; positive control, general statement in the method",complete tumor growth inhibition
